Like-named read-outs stand apart in the source and are kept apart here.
Assays:
[1] = molecular target: T1, LBD (ligand binding domain) of the PPAR-γ receptor (Homo sapiens, UniProt P37231); assay: Binding to PPAR-γ receptor (inhibition of 3H-PPAR-γ ligand binding to LBD); conditions: 8 nM 3H-PPAR ligand, 210 ng LBD/well, 2 hours
T1 sequence (P37231 238-503 limits assumed): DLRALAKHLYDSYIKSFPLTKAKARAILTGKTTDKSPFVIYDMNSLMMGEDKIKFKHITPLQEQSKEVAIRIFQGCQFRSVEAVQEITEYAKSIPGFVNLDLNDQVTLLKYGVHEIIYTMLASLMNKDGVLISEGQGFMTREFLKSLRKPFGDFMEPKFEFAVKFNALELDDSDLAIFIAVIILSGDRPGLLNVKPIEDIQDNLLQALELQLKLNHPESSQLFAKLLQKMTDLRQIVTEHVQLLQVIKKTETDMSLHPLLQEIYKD
Procedure: Binding to PPAR-γ Receptor Compounds are assayed for their ability to inhibit the binding of 3H-PPAR-γ ligand to the LBD (ligand binding domain) of the PPAR-γ receptor. Compounds are tested at 4 concentrations (1 μM to 1 nM) in triplicate. Compounds are incubated with H3-PPAR ligand (8 nM final concentration) and LBD (210 ng/assay well) in assay buffer (50 mM Tris pH8.0. 50 mM KCL, 2 mM EDTA, 0.3% CHAPS, 0.1 mg/ml BSA, 10 mM DTT) for 2 hours with gentle shaking. Non-specific binding is measured in the presence of 10 μM excess cold competitor. Bound ligand is separated using gel filtration plates (Edge Biosystems 31909) and captured on 96 well Wallac MicroBeta plates (1450-5150 by centrifugation for 5 minutes at 2500 rpm. Radioactivity is measured in a Wallac Micro Beta counter. Table 2 gives the IC50 values of compounds 1 and 2.

[2] = system: Zucker Obese Rats; assay: Blood glucose lowering in diabetic rats; format: in vivo, rat; conditions: oral gavage once daily
Procedure: [The source words this procedure for another organism and reports this organism under the same test.] Male Zucker lean rats, 24-28 weeks of age, are fed high fat chow (AIN-93-M formulation) for two weeks to elevate blood glucose. At blood glucose concentrations over 160 mg/dl, a three day pre-study baseline is established by measuring blood glucose daily (at 0700-0800 hrs) via tail vein blood extraction and measurement using a glucometer. Animals are segregated into groups of 5 based on weights and baseline glucose. Compounds are then administered to the animals at various concentrations (30 mg compound/kg body weight or 10 mg compound/kg body weight). The drugs were suspended in 0.5% carboxymethylcellulose (Sigma) in a total gavage volume of 250 μL. Animals are dosed for seven days, once daily in the morning after blood glucose and weight determination. At the end of the seven-day period, the animals are euthanized by exsanguination after isofluorane anesthesia.

[3] = system: primary human subcutaneous preadipocytes; assay: Human adipocyte differentiation (oil red-O staining); format: cell-based; conditions: human adipocyte differentiation in presence of insulin and dexamethasone
Procedure: Assays are carried out on primary human subcutaneous preadipocytes. Preadipocytes are inoculated at high density in preadipocyte medium (DME/F-10, 1:1, (v/v) containing 10% fetal calf serum) and maintained overnight for attachment. Drug treatment is initiated the second day by changing to serum free medium containing test compounds. The basal medium, which is used as the negative control, contains DME/F-10, biotin (33 μM), pantothenate (17 μM), insulin (100 nM), and dexamethasone (1 μM) and BRL 49653 is included as a positive control. The culture is maintained for 14 days with the compound treatment during the first five days. At the end of the culture, cells are fixed in 5% formalin and stained with oil red-O dye. The dye is extracted by isopropanol and quantitated by measure the optical density at 500 nm. EC50 values found in Table 1 reflect the human adipocyte differentiation of the compound in presence of insulin and dexamethasone.

[4] = Treatment Day 0 (baseline), 30 or 10 mg/kg (dose not given)
[5] = 14 day culture, compound first five days, read-out: EC50 Differentiation
[6] = read-out: EC50 Inhibition of Differentiation

IC50 [1] | EC50 [3, 5] | EC50 [3, 6] | Compound | Blood Glucose (mg/dl ± SEM) [2, 4] | Blood Glucose (mg/dl ± SEM) ([2]; Treatment Day 1) | Blood Glucose (mg/dl ± SEM) ([2]; Treatment Day 2) | Blood Glucose (mg/dl ± SEM) ([2]; Treatment Day 3) | Blood Glucose (mg/dl ± SEM) ([2]; Treatment Day 4) | Blood Glucose (mg/dl ± SEM) ([2]; Treatment Day 5) | Blood Glucose (mg/dl ± SEM) ([2]; Treatment Day 6) | Blood Glucose (mg/dl ± SEM) ([2]; Treatment Day 7)
3.3 µM | 0.175 µM | > 10 µM | CN(C(=O)c1ccc(C[C@H](NCc2ccccc2)C(=O)O)cc1)C1CCCC1Sc1ccccc1 (stereo partly drawn) [Compound 2, (2S)-3-{4-[N-methyl-N(2-phenylthiocyclopentyl)carbamoyl]phenyl}-2-[benzylamino]propanoic acid] | 133 ± 11 mg/dL | 136 ± 5 mg/dL | 104 ± 1 mg/dL | 100 ± 9 mg/dL | 93 ± 6 mg/dL | 100 ± 4 mg/dL | 101 ± 5 mg/dL | 92 ± 6 mg/dL
1.7 µM | 0.15 µM | > 10 µM | O=C(NCCCc1ccccc1)c1ccc(C[C@H](NCc2ccccc2)C(=O)O)cc1 [Compound 1, (2S)-2-[benzylamino]-3-{4-[N-(3-phenylpropyl)carbamoyl]phenyl}propanoic acid] | 133 ± 11 mg/dL | 134 ± 11 mg/dL | 105 ± 7 mg/dL | 105 ± 4 mg/dL | 97 ± 16 mg/dL | 113 ± 3 mg/dL | 105 ± 6 mg/dL | 104 ± 8 mg/dL
 | 0.1 µM | > 10 µM | CN(CCOc1ccc(CC2SC(=O)NC2=O)cc1)c1ccccn1 (stereo not drawn) [Rosiglitizone, reference compound] |  |  |  |  |  |  |  | 

— US6713514B1, “PPAR-γ agonists as agents for the treatment of type II diabetes” (Lexicon Pharmaceuticals, Inc., priority 1999, dated 2004)
